Results reported in article PMC4380987 (Protein Science : A Publication of the Protein Society, 2014).

Biological target: Edmanase (engineered cruzain) (Trypanosoma cruzi, UniProt P25779, C147G/G187S/A260C/L282Y)
Format: biochemical

Compound `CC(=O)c1nc(Nc2ccccc2)sc1C` [1-(2-anilino-5-methyl-1,3-thiazol-4-yl)-ethanone] has an IC50 of 1.14 mM.
